According to patent US12247033B2, “Triazole-substituted imidazo[1,2-a]pyrimidines as cGAS inhibitors” (GlaxoSmithKline Intellectual Property Development Limited, priority 2022, dated 2025):
Where a name gives a salt, the structure may show the parent alone. One block for each compound: values may come before it.

Tests used:
[1] = test system: CGAS; assay: CGAS whole blood cytokine release assay (384-well, BacMam stimulation, IP-10 by cytometric bead array); assay type: cell-based; conditions: Homo sapiens, 6 h; read-out: hWB pXC50 (converted)
Method: Blood collection: Blood was collected in a tube containing 10% Sodium Heparin (5 ml/45 ml blood final).
Protocol for CGAS Whole Blood Cytokine Release Assay: Compounds serial diluted at 1:3 were provided at 150 nL per well, in a 384 well polypropylene microplate (cat. 781280; Greiner Bio-One, Frickenhausen, Germany). 5 μL of PBS/20% Null BacMam was dispensed to all wells except for column 18 on a Multidrop Combi (Thermo Scientific, Waltham, MA). 5 uL of PBS was dispensed into column 18. The Bravo (Agilent, Santa Clara, CA) was used to transfer 45 uL of donor derived blood into the compound plates. The Bravo protocol mixed the blood and compound/PBS 5 times. The plates were incubated at 37° C., 5% CO2, for 6 hours. At the 6 hour mark the plates were removed and centrifuged for 10 minutes at 3000 RPM. 3 uL of supernatant was transferred from the plate to a 384 well NBS microplate (cat. 4513; Corning Life Sciences, Corning, NY). These plates were sealed with adhesive foil and stored in a −80 freezer until ready for analysis.
For cytokine detection, Human IP-10 BD cytometric bead array (CBA) beads (BD Biosciences, Franklin Lakes, NJ) were used. Capture bead solution was prepared by performing a 1:50 dilution of the IP-10 capture bead stock solution in BD diluent for serum/plasma (cat. 51-9003991 BD Biosciences, Franklin Lakes, NJ). 2 μL of this solution was added per well to the assay microplates which were then sealed with adhesive foil and incubated at room temperature for 2 h in the dark. Detection reagent was further prepared by performing a 1:50 dilution of the detection reagent stock solution. 2 μL of detection reagent was added per well and microplates were sealed with adhesive foil and incubated at room temperature in the dark for 1 h. After the 1 h incubation 3 uL of BD CBA wash buffer was added per well of the microplates. Data were acquired on an iQue Screener flow cytometer. The iQue used fluorescence detection to quantify the inhibition of IP-10 present in the sample wells. A sip time of 1 second per sample was used. The blue laser with excitation of 488 nm and emission filters 585/40 nm were used to capture the mean and median of IP-10 with the detector in logarithmic mode (FL2-H).
All data analysis was carried out in IDBS ActivityBase XE.

[2] = target: human CGAS (157-522) (Homo sapiens, UniProt Q8N884); assay: biochemical;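 note: biochemical enzyme reaction, 2′3′-cGAMP product measured by RapidFire mass spectrometry (MRM) normalised to c-di-UMP internal standard, inhibition of product formation relative to high and low control wells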
Sequence of human CGAS (157-522) (Q8N884 157-522): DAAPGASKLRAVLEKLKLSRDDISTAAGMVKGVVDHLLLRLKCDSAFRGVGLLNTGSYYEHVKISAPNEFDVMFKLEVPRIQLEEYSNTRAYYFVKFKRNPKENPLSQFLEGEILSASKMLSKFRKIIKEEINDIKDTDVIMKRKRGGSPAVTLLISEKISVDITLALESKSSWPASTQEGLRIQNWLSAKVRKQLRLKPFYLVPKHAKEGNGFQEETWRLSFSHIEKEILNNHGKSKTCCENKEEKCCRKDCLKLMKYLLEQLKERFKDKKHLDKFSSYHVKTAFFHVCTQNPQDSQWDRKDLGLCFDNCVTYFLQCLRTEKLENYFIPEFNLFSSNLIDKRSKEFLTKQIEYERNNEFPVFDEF
Method: Compounds were serially diluted 2, 3, or 4-fold in neat DMSO to generate 11-point dose response curves and then 250 nL compound or DMSO solution was transferred to Greiner 384-well V-bottom assay plates (Catalog #781280) using an Echo acoustic dispenser (Labcyte). A solution of 150 μM ATP, 150 μM GTP, 20 μM pppGpA (GTP-2′5′-AMP, custom synthesis from ChemGenes), and 10 μg/mL sheared salmon sperm DNA (Sigma, Catalog #D1626) in assay buffer (20 mM Trizma, pH 7.5, 10 mM magnesium chloride, 0.3 mM CHAPS, and 0.01% (w/v) bovine serum albumin) was added to columns 1-17, 19-24 of the plate at 12.5 μL/well using a Combi liquid handler (ThermoFisher). A 12.5 μL/well low control solution containing 150 μM ATP, 150 μM GTP, 20 μM pppGpA in assay buffer was added to column 18 using the Combi. A 12.5 μL/well solution of 10-100 nM human CGAS (157-522) in assay buffer was then added to all wells of the plate using the Combi. […] Reactions were quenched by added 50 μL/well of 0.5% (v/v) trifluoroacetic acid (TFA) in mass spectrometry grade deionized water containing 5 μM cyclic-di-UMP (ci-di-UMP; Invivogen Catalog #tlrl-cdu) as the internal standard (IS). Plates were centrifuged for 1 min and then quenched reactions were analyzed using a RF-MS 300 system operating in a Multiple Reaction Monitoring (MRM) detection mode.
Samples (10 μL injection volume) were passed over a silica C18/type C solid phase extraction (SPE) cartridge for analyte (2′3′-cyclic guanosine monophosphate adenosine monophosphate (2′3′-cGAMP), product of biochemical reaction)/pppGpA/c-di-UMP IS adsorption. Adsorbed samples were desalted for 3000 ms using a 100% water eluent A/desalting solution. Afterwards, desalted samples were eluted using a 0.5% TFA in 20%/80% acetonitrile/water eluent B/elution solution directly into either a Sciex 4000, 5000 or 5500 triple quadrupole mass spectrometer (QQQ-MS) for MRM analyte/IS detection. QQQ-MS detection conditions were as follow: scan type: MRM; curtain (CUR) gas: 30 psi; nebulizer (GS1) gas: 50 psi; drying (GS2) gas: 60 psi; collisionally activated dissociation (CAD) gas: 12 relative setting; precursor ion (Q1) masses: 2′3′-cGAMP: m/z 675.1 Da/pppGpA: m/z 853.0 Da/c-di-UMP: m/z 613.1 Da; fragment ion (Q3) masses: 2′3′-cGAMP: m/z 524.1 Da/pppGpA: m/z 702.0 Da/c-di-UMP: 307.1 Da; declustering potentials (DPs): 2′3′-cGAMP: +81 V/pppGpA: +85 V/c-di-UMP: +85 V; entrance potential: +10 V (all analytes); collision energies (CEs): 2′3′-cGAMP: +33 V/pppGpA: +36 V/c-di-UMP: +35 V; collision cell exit potential (CXP): +10 V (all analytes); interface heater (Sciex 4000/5000 only): on; Q1 resolution: unit (all analyte); Q3 resolution: unit (all analytes). The area under the curve (AUC) for all analytes was obtained using the RapidFire Integrator software application to calculate AUC-2′3′-cGAMP/AUC-c-di-UMP intensity ratio. Percent product formation was calculated by comparison to column 6 (high control)/column 18 (low control) responses. The % product inhibition was calculated as follows:
[formula] where A is the minimum response, B is the maximum response, C is the log10*XC50, D is the slope factor, and x is the log10 compound concentration [M] in ABASE XE.

IC50 [1]: 398 nM
IC50 [2]: 5.01 nM
SMILES: FC(F)(F)COc1cnc2nc(-c3nc(C(F)(F)F)n[nH]3)c(-c3cnc[nH]3)n2c1 [Example 160, 5-[3-(1H-imidazol-5-yl)-6-(2,2,2-trifluoroethoxy)imidazo[1,2-a]pyrimidin-2-yl]-3-(trifluoromethyl)-1H-1,2,4-triazole]

IC50 [1]: 251 nM
IC50 [2]: 5.01 nM
SMILES: FC(F)(F)c1n[nH]c(-c2nc3ncc(OC4CCOC4)cn3c2-c2cnc[nH]2)n1 (stereo not drawn) [Example 161, 5-[3-(1H-imidazol-5-yl)-6-(oxolan-3-yloxy)imidazo[1,2-a]pyrimidin-2-yl]-3-(trifluoromethyl)-1H-1,2,4-triazole]

IC50 [1]: 1000 nM
IC50 [2]: 10 nM
SMILES: CC(O)c1ccn2c(-c3cnc[nH]3)c(-c3nc(C(F)(F)F)n[nH]3)nc2n1 (stereo not drawn) [Example 13, 1-[3-(1H-imidazol-5-yl)-2-[3-(trifluoromethyl)-1H-1,2,4-triazol-5-yl]imidazo[1,2-a]pyrimidin-7-yl]ethan-1-ol]

IC50 [1]: 3160 nM
IC50 [2]: 6.31 nM
SMILES: CCOCc1cn2c(-c3cnc[nH]3)c(-c3nc(C(F)F)n[nH]3)nc2nc1C(F)(F)F [Example 117, 3-(difluoromethyl)-5-[6-(ethoxymethyl)-3-(1H-imidazol-5-yl)-7-(trifluoromethyl)imidazo[1,2-a]pyrimidin-2-yl]-1H-1,2,4-triazole]

IC50 [1]: 2510 nM
SMILES: O=C(COCc1cnc2nc(-c3nc(C(F)(F)F)n[nH]3)c(-c3c[nH]cn3)n2c1)N1CCCCC1 [Example 152, 2-{[3-(1H-imidazol-4-yl)-2-[3-(trifluoromethyl)-1H-1,2,4-triazol-5-yl]imidazo[1,2-a]pyrimidin-6-yl]methoxy}-1-(piperidin-1-yl)ethan-1-one]

IC50 [1]: 794 nM
SMILES: CCCOCCOCc1cnc2nc(-c3nc(C(F)(F)F)n[nH]3)c(-c3c[nH]cn3)n2c1 [Example 153, 5-[3-(1H-imidazol-4-yl)-6-[(2-propoxyethoxy)methyl]imidazo[1,2-a]pyrimidin-2-yl]-3-(trifluoromethyl)-1H-1,2,4-triazole]

IC50 [1]: 794 nM
SMILES: FC(F)(F)c1n[nH]c(-c2nc3ncc(C4(C(F)(F)F)CC4)cn3c2-c2cnc[nH]2)n1 [Example 144, 5-[3-(1H-imidazol-5-yl)-6-[1-(trifluoromethyl)cyclopropyl]imidazo[1,2-a]pyrimidin-2-yl]-3-(trifluoromethyl)-1H-1,2,4-triazole]

IC50 [1]: 2510 nM
SMILES: CS(=O)(=O)N1Cc2cn3c(-c4cnc[nH]4)c(-c4nc(C(F)(F)F)n[nH]4)nc3nc2C1 [Example 67, 12-(1H-imidazol-5-yl)-5-methanesulfonyl-11-[3-(trifluoromethyl)-1H-1,2,4-triazol-5-yl]-1,5,8,10-tetraazatricyclo[7.3.0.0^3,^7]dodeca-2,7,9,11-tetraene]

IC50 [1]: 200 nM
SMILES: Fc1cnc2nc(-c3nc(Br)n[nH]3)c(-c3c[nH]cn3)n2c1 [Example 159, 3-bromo-5-[6-fluoro-3-(1H-imidazol-4-yl)imidazo[1,2-a]pyrimidin-2-yl]-1H-1,2,4-triazole]

IC50 [1]: 126 nM
SMILES: CC(=O)n1cnc(-c2c(-c3nc(C(F)(F)F)n[nH]3)nc3ncccn23)c1 [Example 62, 1-(4-{2-[3-(trifluoromethyl)-1H-1,2,4-triazol-5-yl]imidazo[1,2-a]pyrimidin-3-yl}-1H-imidazol-1-yl)ethan-1-one]

Continued, compound first:

SMILES: FC(F)(F)c1n[nH]c(-c2nc3ncc(OCC4CCOC4)cn3c2-c2c[nH]cn2)n1 (stereo not drawn) [Example 135, 5-[3-(1H-imidazol-4-yl)-6-[(oxolan-3-yl)methoxy]imidazo[1,2-a]pyrimidin-2-yl]-3-(trifluoromethyl)-1H-1,2,4-triazole]
IC50 [1]: 631 nM
IC50 [2]: 3.16 nM

SMILES: FC(F)c1n[nH]c(-c2nc3nc(C(F)(F)F)ccn3c2-c2cnc[nH]2)n1 [Example 88, 3-(difluoromethyl)-5-[3-(1H-imidazol-5-yl)-7-(trifluoromethyl)imidazo[1,2-a]pyrimidin-2-yl]-1H-1,2,4-triazole]
IC50 [1]: 501 nM
IC50 [2]: 5.01 nM

SMILES: CCOc1cnc2nc(-c3nc(C(F)(F)F)n[nH]3)c(-c3cnc[nH]3)n2c1 [Example 163, 5-[6-ethoxy-3-(1H-imidazol-5-yl)imidazo[1,2-a]pyrimidin-2-yl]-3-(trifluoromethyl)-1H-1,2,4-triazole]
IC50 [1]: 794 nM
IC50 [2]: 10 nM

SMILES: FC(F)(F)c1n[nH]c(-c2nc3ncc(Cc4ccccc4)cn3c2-c2cnc[nH]2)n1 [Example 89, 5-[6-benzyl-3-(1H-imidazol-5-yl)imidazo[1,2-a]pyrimidin-2-yl]-3-(trifluoromethyl)-1H-1,2,4-triazole]
IC50 [1]: 1580 nM
IC50 [2]: 2.51 nM

SMILES: Fc1cnc2nc(-c3nc(C(F)(F)F)n[nH]3)c(-c3cn[nH]c3)n2c1 [Example 38, 5-[6-fluoro-3-(1H-pyrazol-4-yl)imidazo[1,2-a]pyrimidin-2-yl]-3-(trifluoromethyl)-1H-1,2,4-triazole]
IC50 [1]: 1000 nM
IC50 [2]: 7.94 nM

SMILES: CCOCc1cnc2nc(-c3nc(C(F)F)n[nH]3)c(-c3cnc[nH]3)n2c1 [Example 85, 3-(difluoromethyl)-5-[6-(ethoxymethyl)-3-(1H-imidazol-5-yl)imidazo[1,2-a]pyrimidin-2-yl]-1H-1,2,4-triazole]
IC50 [1]: 50.1 nM

SMILES: CC1(C)Cc2nc3nc(-c4nc(C(F)(F)F)n[nH]4)c(-c4c[nH]cn4)n3cc2CO1 [Example 137, 6-(1H-imidazol-4-yl)-12,12-dimethyl-5-[3-(trifluoromethyl)-1H-1,2,4-triazol-5-yl]-11-oxa-2,4,7-triazatricyclo[7.4.0.0^3,^7]trideca-1,3,5,8-tetraene]
IC50 [1]: 631 nM

SMILES: FC(F)(F)c1n[nH]c(-c2nc3ncc(CC4CCCC4)cn3c2-c2cnc[nH]2)n1 [Example 17, 5-[6-(cyclopentylmethyl)-3-(1H-imidazol-5-yl)imidazo[1,2-a]pyrimidin-2-yl]-3-(trifluoromethyl)-1H-1,2,4-triazole, trifluoroacetic acid salt]
IC50 [1]: 1260 nM

SMILES: CC(=O)N(C)Cc1cnc2nc(-c3nc(C(F)(F)F)n[nH]3)c(-c3cnc[nH]3)n2c1 [Example 76, N-{[3-(1H-imidazol-5-yl)-2-[3-(trifluoromethyl)-1H-1,2,4-triazol-5-yl]imidazo[1,2-a]pyrimidin-6-yl]methyl}-N-methylacetamide]
IC50 [1]: 5010 nM

SMILES: OCC1CN(Cc2ccn3c(-c4c[nH]cn4)c(-c4nc(C(F)(F)F)n[nH]4)nc3n2)C1 [Example 164, (1-{[3-(1H-imidazol-4-yl)-2-[3-(trifluoromethyl)-1H-1,2,4-triazol-5-yl]imidazo[1,2-a]pyrimidin-7-yl]methyl}azetidin-3-yl)methanol]
IC50 [1]: 6310 nM

SMILES: FC(F)(F)c1ccn2c(-c3cnc[nH]3)c(-c3nc(Br)n[nH]3)nc2n1 [Example 91, 3-bromo-5-[3-(1H-imidazol-5-yl)-7-(trifluoromethyl)imidazo[1,2-a]pyrimidin-2-yl]-1H-1,2,4-triazole]
IC50 [1]: 1000 nM

SMILES: FC(F)(F)c1n[nH]c(-c2nc3ncc(COC4CCOCC4)cn3c2-c2c[nH]cn2)n1 [Example 65, 5-[3-(1H-imidazol-4-yl)-6-[(oxan-4-yloxy)methyl]imidazo[1,2-a]pyrimidin-2-yl]-3-(trifluoromethyl)-1H-1,2,4-triazole]
IC50 [1]: 501 nM

SMILES: FC(F)COCc1cnc2nc(-c3nc(C(F)(F)F)n[nH]3)c(-c3cnc[nH]3)n2c1 [Example 101, 5-{6-[(2,2-difluoroethoxy)methyl]-3-(1H-imidazol-5-yl)imidazo[1,2-a]pyrimidin-2-yl}-3-(trifluoromethyl)-1H-1,2,4-triazole]
IC50 [1]: 126 nM

SMILES: FC(F)Oc1n[nH]c(-c2nc3ncccn3c2-c2cnc[nH]2)n1 [Example 113, 3-(difluoromethoxy)-5-[3-(1H-imidazol-5-yl)imidazo[1,2-a]pyrimidin-2-yl]-1H-1,2,4-triazole]
IC50 [1]: 1000 nM

SMILES: OCc1ccn2c(-c3cnc[nH]3)c(-c3nc(C(F)(F)F)n[nH]3)nc2n1 [Example 9, [3-(1H-imidazol-5-yl)-2-[3-(trifluoromethyl)-1H-1,2,4-triazol-5-yl]imidazo[1,2-a]pyrimidin-7-yl]methanol, 0.3 trifluoroacetic acid salt]
IC50 [1]: 100 nM

SMILES: Cc1ccn(CCOCc2cnc3nc(-c4nc(C(F)(F)F)n[nH]4)c(-c4c[nH]cn4)n3c2)n1 [Example 148, 5-[3-(1H-imidazol-4-yl)-6-{[2-(3-methyl-1H-pyrazol-1-yl)ethoxy]methyl}imidazo[1,2-a]pyrimidin-2-yl]-3-(trifluoromethyl)-1H-1,2,4-triazole]
IC50 [1]: 3980 nM

SMILES: COC(=O)c1ccn2c(-c3c[nH]cn3)c(-c3nc(C(F)(F)F)n[nH]3)nc2n1 [Example 100, methyl 3-(1H-imidazol-4-yl)-2-[3-(trifluoromethyl)-1H-1,2,4-triazol-5-yl]imidazo[1,2-a]pyrimidine-7-carboxylate]
IC50 [1]: 398 nM
